PubChem BioAssay AID2060889 (Molecular Pharmacology Branch, DTP, NCI, 2025)

System: LG0567-F671-PDC complex spheroids viability
Assay: Anticancer human tumor LG0567-F671-PDC patient-derived lung adenocarcinoma cell line growth inhibition [RAS]
Details: for IC50: curve of first compound; for viability, T/C: stronger effect = lower value; active = viability on the fitted dose curve at most 10% of control; inactive = the rest
Text: RAS pathway inhibitors in Combinations in Complex Spheroids
A high-throughput screen of multi-cell type tumor spheroids was designed to identify active combinations of RAS pathway inhibitors and targeted small molecules. Complex spheroids include a stromal component modeled by human endothelial cells (HUVEC) and fibroblasts modeled by human mesenchymal stem cells (MSCs). The concentration ranges selected for each drug and investigational agent were based upon clinically achievable concentrations if the clinical Cmax of the agent was known.
Compounds. The drugs and investigational agents: abemaciclib (NSC768073), cobimetinib (NSC768068), divarasib (GDC6063, NSC841802), docetaxel (NSC628503), GDC-1971 (RLY-1971, NSC841576), gemcitabine (NSC613327), inavolisib (NSC800729), ipatasertib (NSC767898), KB-0742 (NSC834161), MRTX-1133 (NSC836407), osimertinib (NSC779217), RMC-4630 (NSC839698), RMC-6236 (NSC851965), RMC-6291 (NSC852671), Ro-3306 (NSC812927), sapanisertib (NSC764658), SN-38 (NSC673596), staurosporine (NSC755774), SY5609 (NSC837396), and tovorafenib (DAY101, NSC766906), were obtained from the National Cancer Institute (NCI) Developmental Therapeutics Program Chemical Repository. The FDA-approved anticancer drug set is available from the NCI Developmental Therapeutics Program. […] The stock solutions were prepared in dimethyl sulfoxide (DMSO, Sigma-Aldrich, St. Louis, MO, cat. D2650) at 800-fold the tested concentration and stored at -70 degrees C prior to their use. All drugs and investigational agents were tested over a range starting from a high concentration at or near the clinical Cmax and decreasing in half-log increments. If the clinical Cmax for an agent had not been determined, the highest concentration tested was 10 microM.
Cell Culture. All cells were maintained in an incubator at 37 degrees C and 5% CO2 with 95% humidity. The PDC lines were cultured according to standard operating procedures established by the NCI PDMR. All PDCs were thawed and cultured in Matrigel-coated flasks prepared with a working solution of 1X Ham's F-12 nutrient mix, without supplementation (Invitrogen, Waltham, MA, cat. 11765054), 100 U/mL penicillin-streptomycin (Invitrogen, cat. 15140122), and 2.5% Matrigel (Corning Inc., Corning, NY, cat. 354248) for the first three passages. The 362531-283-R-J2-PDC and 782815-120-R-J1-PDC lines were cultured in 6C/Colon 1B media, which includes advanced DMEM/F-12 (Thermo Fisher Scientific, cat. 12634028), 10 mM HEPES (Thermo Fisher Scientific, cat. 15630080), 1X GlutaMAX supplement (Thermo Fisher Scientific, cat. 35050061), 0.1 mg/mL primocin (InvivoGen, San Diego, CA, cat. ant-pm-2), 10% defined fetal bovine serum, heat inactivated (HyClone Laboratories Inc., Logan, UT, cat. SH30070.03HI), 50% L-WRN conditioned media (ATCC, cat. CRL-3276), 1.25 mM N-Acetyl-L-cysteine (Sigma-Aldrich, cat. A9165), 10 mM nicotinamide (Sigma-Aldrich, cat. N0636), 1X B-27 supplement (Thermo Fisher Scientific, cat. 17504044), 1X N-2 supplement (Thermo Fisher Scientific, cat. 17502048), 50 ng/mL human EGF (Thermo Fisher Scientific, cat. PHG0311), and 10 microM Y-27632 dihydrochloride (Tocris Bioscience, cat. 1254). The K12877-001-R-J1-PDC line was cultured in 6I media, which includes all 6C/Colon 1B media plus 10 ng/mL human FGF-10 (PeproTech, cat. 100-26), 1 ng/mL human FGF-2 (PeproTech, cat. 100-18B), 1 µM prostaglandin E2 (Tocris Bioscience, cat. 2296), […] hydrocortisone (Sigma-Aldrich, cat. H4001), and […] bovine insulin (Sigma-Aldrich, cat. I6634). The K86415-001-R-J1-PDC line was cultured in 6D media, which includes all 6C/Colon 1B media components minus the L-WRN conditioned media. The 485176-168-R4-J1-PDC was cultured in PANC media, which includes all 6C/Colon 1B media plus 100 ng/mL human FGF-10 (PeproTech, cat. 100-26), 500 nM SB-431542 (Selleckchem, cat. S1067), and 10 nM gastrin (Tocris Bioscience, cat. 3006). […]

[1] = second compound 0.0316 µM, first compound 0.0316 µM
[2] = second compound 0.0316 µM, first compound 0.1 µM
[3] = second compound 0.1 µM, first compound 0.0316 µM
[4] = second compound 0.1 µM, first compound 0.1 µM
[5] = second compound 0.316 µM, first compound 0.0316 µM
[6] = second compound 0.316 µM, first compound 0.1 µM
[7] = second compound 1 µM, first compound 0.0316 µM
[8] = second compound 1 µM, first compound 0.1 µM
[9] = second compound 3.16 µM, first compound 0.0316 µM
[10] = second compound 3.16 µM, first compound 0.1 µM
[11] = second compound 10 µM, first compound 0.0316 µM
[12] = second compound 10 µM, first compound 0.1 µM
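Also: spheroids exposed to compound for seven days before readout.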
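For IC50 in this document: luminescence signal used as a proxy for viable cells.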

CC(C)NCC(C(=O)N1CCN(c2ncnc3c2C(C)CC3O)CC1)c1ccc(Cl)cc1 (centres undefined) + C#Cc1c(F)ccc2cc(O)cc(-c3ncc4c(N5CC6CCC(C5)N6)nc(OCC56CCCN5CC(F)C6)nc4c3F)c12
active: viability, T/C (second compound 10 µM, first compound 1 µM) 9.42% | viability, T/C (second compound 10 µM, first compound 3.16 µM) 8.58% | viability, T/C (second compound 10 µM, first compound 10 µM) 5.74%
> 10000 nM: IC50 (second compound 0.0316 µM) | IC50 (second compound 0.1 µM)
inactive: viability, T/C [1] 93.5% | viability, T/C [2] 88.3% | viability, T/C (second compound 0.0316 µM, first compound 0.316 µM) 72% | viability, T/C (second compound 0.0316 µM, first compound 1 µM) 60.1% | viability, T/C (second compound 0.0316 µM, first compound 3.16 µM) 63.5% | viability, T/C (second compound 0.0316 µM, first compound 10 µM) 55% | viability, T/C [3] 84.2% | viability, T/C [4] 66% | viability, T/C (second compound 0.1 µM, first compound 0.316 µM) 70.6% | viability, T/C (second compound 0.1 µM, first compound 1 µM) 51.3% | viability, T/C (second compound 0.1 µM, first compound 3.16 µM) 59.3% | viability, T/C (second compound 0.1 µM, first compound 10 µM) 56.4% | viability, T/C [5] 50.3% | viability, T/C [6] 50.1% | viability, T/C (second compound 0.316 µM, first compound 0.316 µM) 54.7% | viability, T/C (second compound 0.316 µM, first compound 1 µM) 35.9% | viability, T/C (second compound 0.316 µM, first compound 3.16 µM) 47% | viability, T/C (second compound 0.316 µM, first compound 10 µM) 51.6% | viability, T/C [7] 35.4% | viability, T/C [8] 29.8% | viability, T/C (second compound 1 µM, first compound 0.316 µM) 30% | viability, T/C (second compound 1 µM, first compound 1 µM) 28.1% | viability, T/C (second compound 1 µM, first compound 3.16 µM) 28.2% | viability, T/C (second compound 1 µM, first compound 10 µM) 31.2% | viability, T/C [9] 19.4% | viability, T/C [10] 17.9% | viability, T/C (second compound 3.16 µM, first compound 0.316 µM) 19.2% | viability, T/C (second compound 3.16 µM, first compound 1 µM) 13.9% | viability, T/C (second compound 3.16 µM, first compound 3.16 µM) 14.9% | viability, T/C (second compound 3.16 µM, first compound 10 µM) 13.4% | viability, T/C [11] 12.4% | viability, T/C [12] 12.7% | viability, T/C (second compound 10 µM, first compound 0.316 µM) 11.1%
< 31.6 nM: IC50 (second compound 1 µM) | IC50 (second compound 3.16 µM) | IC50 (second compound 10 µM)
62.2 nM: IC50 (second compound 0.316 µM)

CC(C)n1nc(-c2ccc3oc(N)nc3c2)c2c(N)ncnc21 + C#Cc1c(F)ccc2cc(O)cc(-c3ncc4c(N5CC6CCC(C5)N6)nc(OCC56CCCN5CC(F)C6)nc4c3F)c12
active: viability, T/C (second compound 10 µM, first compound 0.00316 µM) 8.74% | viability, T/C (second compound 10 µM, first compound 0.01 µM) 9.19% | viability, T/C [11] 6.42% | viability, T/C [12] 5.01%
1.32 nM: IC50 (second compound 0.316 µM)
17.8 nM: IC50 (second compound 0.1 µM)
< 0.316 nM: IC50 (second compound 1 µM) | IC50 (second compound 3.16 µM) | IC50 (second compound 10 µM)
19.6 nM: IC50 (second compound 0.0316 µM)
inactive: viability, T/C (second compound 0.0316 µM, first compound 0.000316 µM) 90.7% | viability, T/C (second compound 0.0316 µM, first compound 0.001 µM) 77.8% | viability, T/C (second compound 0.0316 µM, first compound 0.00316 µM) 83.4% | viability, T/C (second compound 0.0316 µM, first compound 0.01 µM) 58.3% | viability, T/C [1] 44.3% | viability, T/C [2] 34.1% | viability, T/C (second compound 0.1 µM, first compound 0.000316 µM) 73.3% | viability, T/C (second compound 0.1 µM, first compound 0.001 µM) 73.5% | viability, T/C (second compound 0.1 µM, first compound 0.00316 µM) 61.1% | viability, T/C (second compound 0.1 µM, first compound 0.01 µM) 58.2% | viability, T/C [3] 43.2% | viability, T/C [4] 33% | viability, T/C (second compound 0.316 µM, first compound 0.000316 µM) 52.9% | viability, T/C (second compound 0.316 µM, first compound 0.001 µM) 48.9% | viability, T/C (second compound 0.316 µM, first compound 0.00316 µM) 49.1% | viability, T/C (second compound 0.316 µM, first compound 0.01 µM) 40.8% | viability, T/C [5] 34.2% | viability, T/C [6] 28.5% | viability, T/C (second compound 1 µM, first compound 0.000316 µM) 36.7% | viability, T/C (second compound 1 µM, first compound 0.001 µM) 36.2% | viability, T/C (second compound 1 µM, first compound 0.00316 µM) 30.8% | viability, T/C (second compound 1 µM, first compound 0.01 µM) 24.9% | viability, T/C [7] 22.3% | viability, T/C [8] 18.5% | viability, T/C (second compound 3.16 µM, first compound 0.000316 µM) 21.4% | viability, T/C (second compound 3.16 µM, first compound 0.001 µM) 19.9% | viability, T/C (second compound 3.16 µM, first compound 0.00316 µM) 20.1% | viability, T/C (second compound 3.16 µM, first compound 0.01 µM) 15.6% | viability, T/C [9] 13.6% | viability, T/C [10] 9.08% | viability, T/C (second compound 10 µM, first compound 0.000316 µM) 11.7% | viability, T/C (second compound 10 µM, first compound 0.001 µM) 10.7%
